Where two headings read alike, the source gives them in different places. Square brackets hold non-standard residues; d marks the D form. Peptide text beside a SMILES is read from it. * marks the point of attachment. AMC = Cc1cc(=O)oc2cc(N*)ccc12; pGlu = O=C1CC[C@@H](C(=O)O)N1
Key:
[1] = target: native rat cortical TRH receptors; assay: TRH receptor binding: displacement of [3H][3-Me-His2]TRH from rat cortical membranes; conditions: for Affinity for [3H]-3MeHis-TRH-labelled receptors in rat brain cortex: result in words; for Affinity for [3H]-3MeHis-TRH-labelled receptors compared with 3MeHis-TRH: rat brain cortex
Method: It cannot be ruled out, however, that [^3H][3-Me-His^2]TRH is binding to a TRH receptor subtype in rat brain cortex that has yet to be identified.
Radioligand binding assays were carried out to examine the ability of these TRH-DE inhibitors to bind to TRH receptors. This was achieved by measuring the ability of the inhibitors to displace [^3H][3-Me-His^2]TRH binding to rat cortical membranes. Membranes were prepared from the cortex of male Wistar rats. The binding of [^3H]-3MeHis-TRH to TRH receptors in cortical membranes was measured as described previously (Kelly et al., 2002) using 10 mM TRH to define non-specific binding. The affinity of TRH-DE inhibitors for TRH receptors was determined in competition experiments and data were analyzed using GraphPad Prism. […] The rank order of potency of D isomer inhibitors was JAK4-D>JAK2-D>JAK1-D.

[2] = target: T1, TRH-DE purified from porcine brain (Sus scrofa, UniProt A0A287AP33); assay: Inhibition of purified TRH-DE (kinetic/fluorometric assays); format: biochemical; conditions: read-out: Ki values for TRH-DE inhibitors
T1 construct: TRH-DE purified from porcine brain; from tissue; host or cells: porcine brain
From the text: The binding capacity offered by in the vicinity of the S2′ binding site of TRH-DE was studied. […] The L-amino acids in these peptides were replaced with D-amino acids. The vast majority of naturally occurring polypeptides are composed of L-amino acids and mammalian proteolytic enzymes are designed to work with this stereochemistry. Thus, replacement of L-amino acids by D-amino acids is used in the art in an endeavor to confer stability to proteolytic degradation as described in U.S. Pat. No. 6,703,366. It is recognized by the art that this type of replacement, however, may lead to loss of peptide specificity and or activity as noted by U.S. Pat. No. 4,587,233, Sato et al. 1987 and Fischer 2003, and thus the effect of the replacement is unpredictable. […] Replacement of L-amino acids by D-amino acids may also be used to scan the relative importance of the stereochemistry of particular functional groups in a peptide structure and also that of local structures within the peptide (Hruby, 2002).
The ability of compounds to be hydrolysed by and to inhibit TRH-DE purified from porcine brain was determined using kinetic assays as previously described (Kelly et al. 1999, 2000a, 2000b, U.S. Pat. application 20030166944). […] [JAK 1, JAK 2, JAK 3, JAK 4 and JAK 5 are described in U.S. Pat. App. No. 20030166944.]
HPLC analysis was used, as previously described (Kelly et al. 2000a, U.S. Pat. App. 20030166944), to assess the ability of each compound listed above to act as a TRH-DE substrate. […] Compounds were then screened for their ability to inhibit TRH-DE purified from porcine brain using fluorometric assays, as previously described (Kelly et al. 2000a, U.S. Pat. App. 20030166944).

Male Wistar rats [3] = assay: Antagonism of barbiturate-induced sleep time (analeptic effect); format: in vivo, rat; conditions: 1 mg/kg i.v.; for Sleep time: 10 min after sodium pentobarbitone 30 mg/kg i.p., mean ± SEM; for Effect on barbiturate-induced sleep time: result in words
Method: The antagonism of barbiturate-induced anesthesia is a well-recognized pharmacological effect of TRH and is used in the art to indicate successful central delivery and activity of TRH analogues. […] Male Wistar rats (150-250 g) were anaesthetized with sodium pentobarbitone (30 mg/kg i.p.). […] Animals were placed on their backs and sleep times recorded. From Table III it can be seen that both […] [table]

Male Wistar rats [4] = assay: Rat behaviour total activity score; format: in vivo
Method: These include, increased locomotor activity (21-22), induction of blinking and forepaw licking and body shaking behavior, often referred to as 'wet dog shakes' (WDS) Kelly et al., 2000b). […] Male Wistar rats (150-250 g) were placed in individual perspex boxes and allowed to acclimatize for 20 min. […] Individual behaviors were recorded for 30 sec at 5 min intervals by an observer who was blind to treatment. Behaviors during each observation period were summed to yield a total activity score.

Male Wistar rats [5] = assay: Wet dog shaking (WDS) behavior; format: in vivo, rat
[6] = tested on: native rat cortical TRH receptors; conditions: cited from earlier work; for Affinity compared to TRH for [3H]-3MeHis-TRH-labelled receptors in rat cortical membranes: previous studies (Kelly et al., 2002)
Male Wistar rats [7] = conditions: Kelly et al., 2000b; cited from earlier work
[8] = L isomer, JAK compounds dissolved in DMSO, read-out: Ki, inhibition of [3H]-3MeHis-TRH binding, X is L isomer aa
[9] = D isomer, JAK compounds dissolved in DMSO, read-out: Ki, inhibition of [3H]-3MeHis-TRH binding, X is D isomer aa

T1 sequence (A0A287AP33 1-1066): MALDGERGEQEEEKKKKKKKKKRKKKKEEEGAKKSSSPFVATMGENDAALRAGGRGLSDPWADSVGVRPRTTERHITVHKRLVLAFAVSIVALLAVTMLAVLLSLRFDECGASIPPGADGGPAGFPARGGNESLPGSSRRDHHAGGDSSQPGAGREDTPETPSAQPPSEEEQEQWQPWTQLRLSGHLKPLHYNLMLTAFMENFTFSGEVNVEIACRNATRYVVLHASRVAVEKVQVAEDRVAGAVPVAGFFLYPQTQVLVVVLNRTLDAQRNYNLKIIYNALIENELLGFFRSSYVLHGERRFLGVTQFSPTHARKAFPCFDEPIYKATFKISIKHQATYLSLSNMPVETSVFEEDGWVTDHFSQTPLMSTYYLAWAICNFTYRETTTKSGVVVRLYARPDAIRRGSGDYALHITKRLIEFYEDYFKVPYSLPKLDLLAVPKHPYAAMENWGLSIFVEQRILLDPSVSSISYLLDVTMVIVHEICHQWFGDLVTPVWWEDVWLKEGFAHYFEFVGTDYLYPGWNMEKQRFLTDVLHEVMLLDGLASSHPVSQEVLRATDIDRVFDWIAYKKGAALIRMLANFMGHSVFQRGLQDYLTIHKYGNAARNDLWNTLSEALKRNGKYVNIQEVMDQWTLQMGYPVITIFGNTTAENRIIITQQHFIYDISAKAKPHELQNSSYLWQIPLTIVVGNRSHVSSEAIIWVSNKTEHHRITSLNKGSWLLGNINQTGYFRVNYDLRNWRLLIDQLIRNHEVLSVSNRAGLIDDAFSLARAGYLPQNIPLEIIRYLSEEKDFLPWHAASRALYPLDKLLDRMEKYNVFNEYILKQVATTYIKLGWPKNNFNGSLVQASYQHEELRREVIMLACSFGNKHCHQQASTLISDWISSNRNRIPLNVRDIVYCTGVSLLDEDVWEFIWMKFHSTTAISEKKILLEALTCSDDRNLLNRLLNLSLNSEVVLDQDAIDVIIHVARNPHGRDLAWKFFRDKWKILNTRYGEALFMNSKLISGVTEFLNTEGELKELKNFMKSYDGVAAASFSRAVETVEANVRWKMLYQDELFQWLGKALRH

Compound: Cc1cc(=O)oc2cc(NC(=O)[C@H](Cc3c[nH]c4ccccc34)NC(=O)[C@H](Cc3ccc(O)cc3)NC(=O)[C@@H]3CCCN3C(=O)[C@H](CC(N)=O)NC(=O)[C@@H]3CCC(=O)N3)ccc12 [JAK 2, Glp-Asn-Pro-LTyr-LTrp-AMC] ([pGlu]NPYW-{AMC})
- Ki [1, 8]: ~40000 nM
- Affinity for [3H]-3MeHis-TRH-labelled receptors in rat brain cortex [1]: low affinity

Compound: NC(=O)C[C@H](NC(=O)[C@@H]1CCC(=O)N1)C(=O)N1CCC[C@H]1C(=O)N[C@H](Cc1ccc(O)cc1)C(=O)N[C@H](Cc1c[nH]c2ccccc12)C(N)=O [JAK 4D, Glp-Asn-Pro-D-Tyr-D-TrpNH2] ([pGlu]NP[dY][dW]-NH2)
- Ki [2]: 110 nM
- Ki [1, 9]: 5.5 nM
- Affinity for [3H]-3MeHis-TRH-labelled receptors compared with 3MeHis-TRH [1]: greater affinity
- Sleep time (Male Wistar rats [3]): 54.1 ± 2.4 min
- Responses on co-administration with 10 mg/kg TRH (Male Wistar rats [4]; 0.1 mg/kg): equivalent to those achieved by 20 and 50 mg/kg TRH
- Effect of pre-treatment on stimulatory effect of 10 mg/kg TRH (Male Wistar rats [4]; 0.1 mg/kg, 15-20 min after TRH): enhanced
- Activity response compared with TRH (Male Wistar rats [4]; 1 mg/kg JAK4-D): comparable to that produced by TRH 5 mg/kg
- Effect of pre-treatment on responses to 10 mg/kg TRH (Male Wistar rats [4]; 1 mg/kg, entire observation period): enhanced and prolonged
- Effect on spontaneous rat activity scores vs vehicle (Male Wistar rats [4]; 0.1-5 mg/kg i.p.): transient increase
- Effect of pre-treatment on peak WDS response to 10 mg/kg TRH (Male Wistar rats [5]; 1 mg/kg): enhanced
- Occurrence of WDS (Male Wistar rats [5]; 1 mg/kg): comparable with the response produced by 5 mg/kg TRH

Compound: NC(=O)C[C@H](NC(=O)[C@@H]1CCC(=O)N1)C(=O)N1CCC[C@H]1C(=O)N[C@@H](Cc1ccc(O)cc1)C(=O)N[C@@H](Cc1c[nH]c2ccccc12)C(N)=O [JAK 4, Glp-Asn-Pro-LTyr-LTrp-NH2] ([pGlu]NPYW-NH2)
- Ki [1, 8]: 120 nM

Compound: Cc1cc(=O)oc2cc(NC(=O)[C@@H]3CCCN3C(=O)[C@H](CC(N)=O)NC(=O)[C@@H]3CCC(=O)N3)ccc12 [JAK 5, Glp-Asn-Pro-AMC] ([pGlu]-Asn-Pro-{AMC})
- Ki [2]: 970 nM
- Affinity compared to TRH for [3H]-3MeHis-TRH-labelled receptors in rat cortical membranes [6]: relatively low affinity
- Effect on central effects of TRH in vivo (Male Wistar rats [7]): amplify

Compound: Cc1cc(=O)oc2cc(NC(=O)[C@@H](Cc3c[nH]c4ccccc34)NC(=O)[C@@H](Cc3c[nH]c4ccccc34)NC(=O)[C@@H](Cc3ccc(O)cc3)NC(=O)[C@@H]3CCCN3C(=O)[C@H](CC(N)=O)NC(=O)[C@@H]3CCC(=O)N3)ccc12 [JAK 1D, Glp-Asn-Pro-DTyr-DTrp-DTrpAMC] ([pGlu]NP[dY][dW][dW]-{AMC})
- Ki [2]: 30 nM
- Ki [1, 9]: 60 nM

Compound: NC(=O)[C@@H](Cc1c[nH]c2ccccc12)NC(=O)[C@@H](Cc1ccc(O)cc1)NC(=O)[C@@H]1CCCN1C(=O)[C@H](Cc1c[nH]cn1)NC(=O)[C@@H]1CCC(=O)N1 [JAK 7D, Glp-His-Pro-D-Tyr-D-TrpNH2] ([pGlu]HP[dY][dW]-NH2)
- Ki [2]: 19600 nM
- Ki [1, 9]: 1000 nM

Compound: Cc1cc(=O)oc2cc(NC(=O)[C@H](Cc3c[nH]c4ccccc34)NC(=O)[C@H](Cc3c[nH]c4ccccc34)NC(=O)[C@H](Cc3ccc(O)cc3)NC(=O)[C@@H]3CCCN3C(=O)[C@H](CC(N)=O)NC(=O)[C@@H]3CCC(=O)N3)ccc12 [JAK 1, Glp-Asn-Pro-LTyr-LTrp-LTrp-AMC] ([pGlu]NPYWW-{AMC})
- Ki [2]: 1 nM
- Ki [1, 8]: > 100000 nM
- Affinity for [3H]-3MeHis-TRH-labelled receptors in rat brain cortex [1]: low affinity

Compound: [^3H][3-Me-His^2]TRH [reference compound]
- Kd ([6]; single population of high affinity sites (Sharif 1989, Kelly et al., 2002), read-out: Kd on rat brain cortical membranes): ~5 nM

Compound: Cc1cc(=O)oc2cc(NC(=O)[C@@H](Cc3c[nH]c4ccccc34)NC(=O)[C@@H](Cc3ccc(O)cc3)NC(=O)[C@@H]3CCCN3C(=O)[C@H](CC(N)=O)NC(=O)[C@@H]3CCC(=O)N3)ccc12 [JAK 2D, Glp-Asn-Pro-DTyr-DTrpAMC] ([pGlu]NP[dY][dW]-{AMC})
- Ki [2]: 100 nM
- Ki [1, 9]: 3.7 nM
- Affinity for [3H]-3MeHis-TRH-labelled receptors compared with 3MeHis-TRH [1]: greater affinity

Compound: NC(=O)C[C@H](NC(=O)[C@@H]1CCC(=O)N1)C(=O)N1CCC[C@H]1C(=O)N[C@@H](Cc1ccc(O)cc1)C(=O)N[C@@H](Cc1c[nH]c2ccccc12)C(=O)N[C@@H](Cc1c[nH]c2ccccc12)C(N)=O [JAK 3, Glp-Asn-Pro-LTyr-LTrp-LTrpNH2] ([pGlu]NPYWW-NH2)
- Ki [2]: 730 nM

Compound: Cn1cncc1C[C@H](NC(=O)[C@@H]1CCC(=O)N1)C(=O)N1CCC[C@H]1C(N)=O [3-MeHis-TRH, reference compound]
- Ki ([1]; in DMSO, read-out: Ki, inhibition of [3H]-3MeHis-TRH binding): 74 nM
- Ki ([1]; in saline, read-out: Ki, inhibition of [3H]-3MeHis-TRH binding): 1.9 nM

Compound: NC(=O)C[C@H](NC(=O)[C@@H]1CCC(=O)N1)C(=O)N1CCC[C@H]1C(N)=O [JAK 6, Glp-Asn-ProNH2] ([pGlu]-Asn-Pro-NH2)
- Ki [2]: 16100 nM
- Affinity compared to TRH for [3H]-3MeHis-TRH-labelled receptors in rat cortical membranes [6]: relatively low affinity

Compound: [pGlu]NP[dY][dW]-NH2
- Effect on barbiturate-induced sleep time (Male Wistar rats [3]): significantly (p<0.05, Student's t-test) reduce

Compound: NC(=O)[C@@H]1CCCN1C(=O)[C@H](Cc1c[nH]cn1)NC(=O)[C@@H]1CCC(=O)N1 [TRH, pyroglutamyl-histidyl-prolineamide, reference compound]
- Ki [1, 8]: 22 nM
- Sleep time (Male Wistar rats [3]): 54.5 ± 4.3 min
- Effect on barbiturate-induced sleep time (Male Wistar rats [3]): significantly (p<0.05, Student's t-test) reduce
- Effect on rat activity (Male Wistar rats [4]; TRH 5-50 mg/kg): dose-dependent increase
- Effect on WDS (Male Wistar rats [5]; TRH i.p.): concentration-dependent increase
- Persistence of effects on WDS (Male Wistar rats [5]; TRH i.p.): approximately 20 min
- Time of maximum numbers of WDS post administration (Male Wistar rats [5]; TRH i.p.): 5 min
